From patent EP3714904B1, “IMINODIACETIC ACID SUBSTITUTED CYCLODEXTRINS AS POTENTIATORS OF BETA-LACTAM ANTIBIOTICS” (NATIONAL CENTER FOR SCIENTIFIC RESEARCH "DEMOKRITOS" (NCSRD), priority 2019, dated 2020)

Experiments:
[1] = format: in vivo; conditions: dosing schemes up to 500 mg/kg
Protocol: The acute in-vivo toxicity of β-IDACYD was also determined to provide range-finding doses to be used in in-vivo studies and possibly implicate target organs for toxicity.

[2] = system: VIM-1 producing K. pneumoniae SEC-4; experiment: Neutropenic murine thigh infection model; format: in vivo, CD-1 mice; conditions: 30 mg/kg imipenem + 10 mg/kg β-IDACYD intravenously, 2 h intervals for 24 hours
Protocol: Example 6. In-vivo murine thigh infection model: A murine thigh infection model was utilized based on the biodistribution results. In a neutropenic mouse thigh infection model was administered intravenously a therapeutic scheme of either 30 mg/kg imipenem or 30 mg/kg imipenem co-administered with 10 mg/kg β-IDACYD in 2 h intervals for 24 hours. At the end of the treatment the bacterial burden of the thigh was reduced by 0.5 log10 in the presence of 10 mg/kg β-IDACYD compared to that of the antibiotic monotherapy.
Twenty, 10 weeks old female (CD-1) mice were rendered neutropenic by administration of two doses of cyclophosphamide (150 mg/kg and 100 mg/kg per mouse on days -4 and -1, respectively). On day 0, all mice were challenged with 0.1 mL of a 10^7 CFU/mL of VIM-1 producing K. pneumoniae SEC-4 by intramuscular injection in the right thigh. From the six mice in the control group that were treated with normal saline (Group A), two mice were sacrificed 2 hours post inoculation while the other mice in groups of seven mice each were intravenously treated with 30 mg/kg imipenem (Group B) or 30 mg/kg imipenem along with 10 mg/kg β-IDACYD (Group C) at 2 hour intervals for 24 hours. At 6-hours post inoculation two mice of group 1 as well as three mice of each of groups 2 and 3 were sacrificed and their thighs were aseptically removed. […]

## CO[C@@H]1[C@@H](OC)[C@H]2O[C@H]3[C@H](OC)[C@@H](OC)[C@@H](O[C@H]4[C@H](OC)[C@@H](OC)[C@@H](O[C@H]5[C@H](OC)[C@@H](OC)[C@@H](O[C@H]6[C@H](OC)[C@@H](OC)[C@@H](O[C@H]7[C@H](OC)[C@@H](OC)[C@@H](O[C@H]8[C@H](OC)[C@@H](OC)[C@@H](O[C@@H]1[C@@H](CN(CC(=O)O)CC(=O)O)O2)O[C@@H]8CN(CC(=O)O)CC(=O)O)O[C@@H]7CN(CC(=O)O)CC(=O)O)O[C@@H]6CN(CC(=O)O)CC(=O)O)O[C@@H]5CN(CC(=O)O)CC(=O)O)O[C@@H]4CN(CC(=O)O)CC(=O)O)O[C@@H]3CN(CC(=O)O)CC(=O)O [β-IDACYD]
[1]
  acute in-vivo toxicity: no deaths and no signs indicative of acute toxicity
[2]
  reduction of bacterial burden of the thigh compared to antibiotic monotherapy: 0.5 log10
